Experimental data as given in paper PMC7690281 (Antiviral Research, 2020).
Entries after “also recorded” stand apart in the source; their conditions may differ. Structures can show the parent of a compound that is named as a salt.

Experiments:
[1] = system: SARS-2-CoV spike protein-pseudotyped retrovirus (SARS-2-Spp); format: cell-based, SARS-CoV-2
[2] = system: ASFV Bpp30GFP; format: cell-based, African swine fever virus (ASFV); settings: for reduction of ASFV infectivity: 10 μM
[3] = system: ASFV early p30 and late p72 proteins; format: cell-based, African swine fever virus (ASFV)
[4] = system: ASFV viral DNA (p72 gene); format: cell-based, African swine fever virus (ASFV)
[5] = system: endolysosomal calcium in Vero cells; format: cell-based
[6] = system: VSV pseudovirions with EBOV GP (rVSV-EBOV-luc); format: cell-based, Ebola virus (EBOV)
[7] = system: acidic endosomes of Vero cells; format: cell-based

## COc1ccc(CCN(C)CCCC(C#N)(c2ccc(OC)c(OC)c2)C(C)C)cc1OC (stereo not drawn) [Verapamil]
[1]
  reduction of SARS-2-Spp entry (luciferase levels) compared to vehicle: over 90%

## Nc1ccc(C(=O)Nc2cccc(-c3nc(N4CCOCC4)c4oc5ncccc5c4n3)c2)cn1 [YM201636]
[1]; 1 μM
  reduction in the luciferase activity levels (SARS-2-Spp): 65%

## C[C@]12CC[C@@H]3c4ccc(O)cc4CC[C@H]3[C@@H]1CC[C@@H]2O [Estradiol, β-Estradiol]
[2]
  effect on ASFV infection/entry: low impact

## COc1ccc2cc1Oc1ccc(cc1)C[C@H]1c3cc(c(OC)cc3CCN1C)Oc1c(OC)c(OC)cc3c1[C@H](C2)N(C)CC3 [Tetrandine, Tetrandrine]
[1]
  reduction of SARS-2-Spp entry (luciferase levels) compared to vehicle: over 99%

## Cl.O=C(c1ccc(OCCN2CCCCC2)cc1)c1c(-c2ccc(O)cc2)sc2cc(O)ccc12 [Raloxifen, Raloxifene hydrochloride]
[3]
  expression of early viral protein p30 and late viral protein p72: reduction of the expression of early viral protein p30 and late viral protein p72
[4]
  viral DNA replication (ASFV genome copy number): reduced viral DNA synthesis
[2]
  effect on ASFV infection/entry: potent inhibitory effect; also recorded: strongly reduced ASFV entry
  reduction of ASFV infectivity: 80%
[5]
  distribution of calcium indicator Fluo8: calcium indicator markedly accumulated in fluorescent vesicles
  distribution of calcium indicator Fluo8 and viral factories: marked accumulation of fluorescent vesicles and the absence of viral factories
[1]
  reduction of SARS-2-Spp entry (luciferase levels) compared to vehicle: over 90%

## Cc1cccc(/C=N/Nc2cc(N3CCOCC3)nc(OCCc3ccccn3)n2)c1 [Apilimod]
[6]
  infectivity reduction, EBOV GP pseudovirus: over 75%

## CO/C1=C\C(C)=C\[C@@H](C)[C@@H](O)[C@@H](C)C/C(C)=C/C=C/[C@H](OC)[C@@H]([C@@H](C)[C@@H](O)[C@H](C)[C@@]2(O)C[C@@H](O)[C@H](C)[C@@H](C(C)C)O2)OC1=O [BAF, Bafilomycin]
[7]
  endosome acidification (LysoTracker Red staining): strong reduction of acidic endosomes

## C[C@]12CC[C@@H]3c4ccc(O)cc4C[C@@H](CCCCCCCCC[S+]([O-])CCCC(F)(F)C(F)(F)F)[C@H]3[C@@H]1CC[C@@H]2O (stereo partly drawn) [Fulvestran, Fulvestrant]
[2]; 100 μM
  impact on ASFV infectivity: under 20%

## CC/C(=C(\c1ccccc1)c1ccc(OCCN(C)C)cc1)c1ccccc1 [Tamoxifen, Tamoxifen citrate]
[3]
  expression of early viral protein p30 and late viral protein p72: reduction of the expression of early viral protein p30 and late viral protein p72
[4]
  viral DNA replication (ASFV genome copy number): reduced viral DNA synthesis
[2]
  effect on ASFV infection/entry: potent inhibitory effect; also recorded: strongly reduced ASFV entry
  reduction of ASFV infectivity: 80%
